Reference: US9469854B2, “Pharmaceutical composition for treating liver diseases” (Academia Sinica, priority 2014, dated 2016)

Key:
miR-21-3p = experiment: qRT-PCR microRNA assay in primary human hepatocytes; type: cell-based; settings: PHHs, 40 μM berberine, 2 h
Procedure: The primary human hepatocytes from Caucasian donors were purchased from Invitrogen and cultured following the manufacturer's instructions. The hepatocytes were thawed and transferred into cryopreserved hepatocytes recovery medium (CM7000, Invitrogen), centrifuging at room temperature, 100×g for 10 min. Then, the hepatocytes were diluted to seeding density with plating medium (CM3000, Invitrogen) and added into collagen I-coated plates (Invitrogen). These plates were incubated at 37° C. for 4-6 hours under 5% CO2 for forming a monolayer. Then, plating medium was replaced by overlay incubation medium (CM4000 and 0.35 mg/mL Geltrex™ Matrix, Invitrogen), and the incubation medium was replaced daily. In the following examples, hepatocytes form 3 to 4 donors were used for experiments. A 50 mM stock solution of berberine chloride (Sigma-Aldrich) was prepared in dimethyl sulfoxide (DMSO). Cells were treated with 40 μM of berberine chloride or 0.08% DMSO as the control. For induction of lipid droplets formation in cultured cells, 200 μM of oleic acid (Sigma-Aldrich) was added into the culture medium for 24 h. Total RNA was extracted using a TRIZOL reagent (Invitrogen) according to the manufacturer's protocol. The total RNA quantity was measured using a NanoDrop ND-1000 spectrophotometer (Nanodrop Technologies). […]

HepG2 cells [1] = experiment: Apoptosis (sub-G1 population) by flow cytometry with PI staining; type: cell-based, human; settings: HepG2, 50 nM mimic transfection 72 h vs NC mimic
Procedure: After transfection with 50 nM of hsa-miR-21-3p mimic or the negative-control mimic for 72 h, the HepG2 cells were trypsinized and counted. Apoptosis was detected by measuring the sub-G1 population by using flow cytometry with propidium iodide (PI) staining. In brief, the cells were fixed in 70% ethanol on ice for 15 min, and stained with the PI staining solution (20 μg/mL PI, 0.1% Triton-X 100, and 0.2 mg/mL RNase A in PBS) for 30 min at room temperature and analyzed using CyAn ADP (Beckman Coulter) flow cytometry with Summit software.

ACACA = experiment: qRT-PCR mRNA expression in HepG2 cells; type: cell-based, human; settings: HepG2, mimic transfection, 24 h
Procedure: The human HepG2 cells and HEK 293T cells used in the following examples were originally obtained from the American Tissue Culture Collection (ATCC, USA). The human HCC HepG2 cell line was cultured in Minimum Essential Medium Eagle (Sigma) supplemented with 10% fetal bovine serum (FBS) (Invitrogen), 2.2 g/L of sodium bicarbonate (Sigma), 0.1 mM of non-essential amino acids (Caisson), 1 mM of sodium pyruvate (Invitrogen), and 10 of ml/L penicillin-streptomycin-amphotericin solution (Biological Industries). Human HEK-293T cells were maintained in high-glucose Dulbecco's modified eagle medium (Invitrogen) supplemented with 10% FBS and 3.7 g/L of sodium bicarbonate (Sigma). Both cell lines were cultured at 37° C. and 5% CO2. A 50 mM stock solution of berberine chloride (Sigma-Aldrich) was prepared in dimethyl sulfoxide (DMSO). Cells were treated with 40 μM of berberine chloride or 0.08% DMSO as the control. For induction of lipid droplets formation in cultured cells, 200 μM of oleic acid (Sigma-Aldrich) was added into the culture medium for 24 h. Total RNA was extracted using a TRIZOL reagent (Invitrogen) according to the manufacturer's protocol. The total RNA quantity was measured using a NanoDrop ND-1000 spectrophotometer (Nanodrop Technologies). The total RNA quality and integrity were assayed using an Agilent 2100 bioanalyzer with an RNA 6000 nano kit (Agilent Technologies). Total RNAs (1 μg) were reverse-transcribed into cDNA by using M-MuLV Reverse Transcriptase (Thermo) and Oligo(dT)12-18 primers (Invitrogen) according to the manufacturer's protocol. The cDNA were then used for a real-time PCR with a LightCycler 480 SYBR Green I Master (Roche) by using primers shown in the following Table 1. The gene expression levels were normalized to GAPDH levels. […] Cells were incubated for 24 h or 48 h with a microRNA mimic or inhibitor prior to RNA purification for gene expression analysis, and were incubated for 72 h for protein expression analysis.

ACACA mRNA = experiment: mRNA stability assay; type: cell-based, human
HepG2 cells [2] = experiment: Trypan blue dye exclusion assay (viable cell number); type: cell-based, human; settings: HepG2, 50 nM mimic transfection 48 h vs NC mimic
Procedure: FIG. 6A represents the number of viable HepG2 cells transfected with 50 nM of miR-21-3p mimic or negative-control (NC) mimic for 48 h, which is quantified using trypan blue dye exclusion assay. The data are represented as the mean±standard deviation for 3 independent experiments. The asterisk mark “*” indicates a significant difference with P<0.05.
The HepG2 cells were transfected at a density of 5×10^4 cells per well in a 24-well culture plates with either 50 nM of hsa-miR-21-3p (miR-21-3p mimic) or negative-control mimic (NC mimic), or with either 100 nM of hsa-miR-21-3p inhibitor (miR-21-3p inhibitor) or negative-control inhibitor (NC inhibitor) by using the DharmaFECT 4 transfection reagent (Thermo Scientific Dharmacon) according to the manufacturer's instructions. Cells were incubated for 24 h or 48 h with a microRNA mimic or inhibitor prior to RNA purification for gene expression analysis, and were incubated for 72 h for protein expression analysis.

3′ UTR sequence of DGAT2 = experiment: Reporter examination of miR-21-3p and DGAT2 3′ UTR (technology similar to Example 6); type: cell-based, human
Procedure: The HEK-293T and HepG2 cells were seeded at a density of 5×10^4 cells per well in a 24-well culture plate the day before transfection. The HEK-293T and HepG2 cells were tri-transfected with (1) any one of the above-mentioned pMIR-REPORT-3′ UTR construction (300 ng), (2) the control Renilla luciferase reporter plasmid pRL-TK from Promega (10 ng), and (3) 50 nM of hsa-miR-21-3p mimic or negative-control mimic by using the Lipofectamine 2000 transfection reagent (Invitrogen) according to the manufacturer's instructions. Luciferase assays were performed after transfection for 48 h by using the Dual Luciferase reporter assay kit (Promega) and the Paradigm detection platform (Beckman) according to the manufacturer's protocol. The firefly luciferase activity was normalized relative to the Renilla luciferase activity.

Row | Molecule | miR-21-3p expression (qRT-PCR) (miR-21-3p) | apoptosis (sub-G1 population) (HepG2 cells [1]) | decrease in mRNA expression of ACACA (ACACA) [%] | half-life of ACACA mRNA (ACACA mRNA) | viable cell numbers (HepG2 cells [2]) | suppression of DGAT2 expression by pairing with 3′ UTR (3′ UTR sequence of DGAT2) [fold]
1 | COc1ccc2cc3[n+](cc2c1OC)CCc1cc2c(cc1-3)OCO2 [berberine] | up-regulation | – | – | – | – | –
2 | hsa-miR-21-3p (CAACACCAGUCGAUGGGCUGU; listed as RNA, chemistry not given here) [miR-21-3p mimic] | – | induced apoptosis | 44 | reduced the half-life of ACACA mRNA | reduced the viable cell numbers | 1.4
